Results: patent publication US20260306459A1, “INHIBITORS OF NSUN1- AND NSUN2-MEDIATED ACTIVE STRUCTURES” (THE UNIVERSITY OF CHICAGO, priority 2023, published 2026)
Entries after “also recorded” stand apart in the source; their conditions may differ.

Columns and labels:
[1] = test system: eRNAPII (CTD-S2P)-NSUN1 interaction; details: Cheng 2018; cited from earlier work
[2] = test system: eRNAPII (CTD-S2P)-NSUN3 interaction; details: Cheng 2018; cited from earlier work
[3] = test system: eRNAPII (CTD-S2P)-DNMT2 interaction; details: Cheng 2018; cited from earlier work
SCAR cells = details: low concentrations of 5-AZA, NSUN1 siRNA; Cheng 2018; cited from earlier work
[4] = test system: eRNAPII (CTD-S2P)-CTD-S5P interaction; details: Cheng 2018; cited from earlier work
[5] = test system: BRD4-eRNAPII (CTD-S2P) interaction; details: azacitidine-resistant M2AR cells; Cheng 2018; cited from earlier work
BRD4-NSUN1 interaction = details: azacitidine-resistant M2AR cells; Cheng 2018; cited from earlier work
SC cells = experiment: MTT growth inhibition in venetoclax-resistant monocytic leukemia cell line SC; type: cell-based, human
Text: (§1) FIGS. 8A-8B display a schematic of an 5-ethynyl uridine click chemistry (EC)-coupled flow cytometry (EC-FCM) assay (FIG. 8A), while FIG. 8B depicts the results of an EC-FCM assay showing distinct drug-specific signatures/patterns of nascent RNA synthesis inhibition in the venetoclax sensitive leukemia cell line (K1). The MTT assay measures cell viability and proliferation as well as cytotoxicity of compounds by assessing cellular metabolic activity. The associated measurement can be described as cell viability, cell killing, and/or growth inhibition.
(§2) FIGS. 11A-11D display scatter plot representations of screening results for AI-designed NSUN1-targeting compound libraries in a venetcoclax-resistant human myeloid leukemia cell line (SC), lung cancer cell line (H82), and venetoclax resistant human […], and a schematic representation of categorization of the results. A human myeloid leukemia cell Line (SC), a lung cancer cell line (H82 or K562) were both incubated at drug concentration 10 μM/μL overnight. MTT assays were performed after 24 hours, and changes were calculated as the percentage of mean absorbance (n=3) versus mean absorbance of drug-free control (n=3). Negative outliers indicated in red ovals. FIG. 11A depicts the results of an NSUN1-targeting drug library, 74 drugs, comparing growth/inhibition in H-82 (Y axis) and SC (X axis) cell lines. FIG. 11B depicts the results of an NSUN2-targeting drug library, 102 drugs, comparing growth/inhibition in H-82 (Y axis) and SC (X axis) cell lines. FIG. 11C depicts the results of an NSUN1-targeting drug library, 74 drugs, comparing growth/inhibition in K562 (Y axis) and SC (X axis) cell lines. FIG. 11D is a schematic representation showing categorization of the results from screens performed as described in FIG. 11, and validation experiments as described in FIG. 12.
(§3) FIGS. 12A-12J display bar graphs displaying the results of validation experiments for small molecule inhibitors of NSUN1/2-ACS interactions as identified herein. Drug validation of select SC, H82, and/or K562 inhibiting compounds in mouse acute myeloid leukemia cell Line (C1498), SC cells, H82 cells, and/or K562 cells. NSUN1-17 and/or venetoclax acted as controls. Inhibition of cell vitality was identified as dose-dependent for certain small molecules, not merely cytotoxic. In brief, stock with concentration 0.4×10^6 test (e.g., SC, H82, K562, or C1498, as labelled) cells/mL, and 10 μM/μL drug was serially diluted into drug-free cell stock to reach concentrations of 1 μM/μL and […] and split into 100 μL volumes in a 96-well plate. MTT assays performed after 24 hour incubation. Percentages calculated as a difference in mean absorbance of each drug triplicate and mean absorbance in drug-free cell triplicate. Red bars represent standard errors. The concentration of drug represented by each column is from left to right as written in the figure keys. FIGS. 12A-12E provide results from independent repeats for different groupings of small molecules tested against C1498 cells. FIGS. 12F-12G provide results from independent repeats for different groupings of small molecules tested against H82 cells. FIGS. […] provide results from independent repeats for different groupings of small molecules tested against SC cells. FIG. 12J provide results from an assay against K562 cells.
The inventors then designed a protocol for functional screening of NSUN1/2-targeting supercomputing/AI-derived compound libraries as schematically presented in FIGS. 5A-5G. Briefly, the library compounds were obtained from various chemical companies/vendors and dissolved in DMSO, and then applied to 96-well plates that contained leukemia and/or other cancer cells that were resistant to venetoclax. […]

[6] = test system: leukemia and lung cancer cell lines; experiment: Functional (MTT) screening of NSUN1/2-targeting libraries in leukemia and lung cancer cell lines; type: cell-based, human; details: multiple leukemia lines and/or lung cancer cell lines
Description: as §2, §3
The inventors then designed a protocol for functional screening of NSUN1/2-targeting supercomputing/AI-derived compound libraries as schematically presented in FIGS. 5A-5G. Briefly, the library compounds were obtained from various chemical companies/vendors and dissolved in DMSO, and then applied to 96-well plates that contained leukemia and/or other cancer cells that were resistant to venetoclax. Both the routine colorimetric assay (MTT assay) and the newly developed NSUN1/2-targeting fluorescence quenching and release (FQR) assay were performed to select bioactive compounds for further quantitative study to confirm that they targetNSUN1/2 and their associated ACS. As described below, the compound libraries screened through cancer cell proliferation and/or NSUN1/2 localization to the ACS successfully identified numerous promising compounds that can inhibit the leukemia cell growth and appear to target the NSUN1-mediated ACS (see Table 2). This success has proven the feasibility and efficacy of the described supercomputing/AI design and functional screening of the NSUN1/2-targeting drug libraries. In some aspects, screening is conducted using drug-resistant cell lines. […]

[7] = target: T1, NSUN1-eRNAPII interaction (Homo sapiens, UniProt P46087); experiment: PL-RCA-FCM, NSUN1-eRNAPII interaction; type: cell-based
T1 construct: RNAPII
Text: (§4) FIGS. 5A-5G display a pipeline of computational design and functional screening of small-molecule compound libraries as well as exemplary characterization and validation of identified positive hit compounds and their targets. FIGS. 5A-5D display an exemplary experimental procedure, beginning with characterization of NSUN1 and/or NSUN2 putative binding modules for interaction with ACS components (FIGS. 5A-5B), a graphic displaying the design of a small molecule library and testing of the putative small molecule NSUN1/2-ACS inhibitors in cell lines (FIG. 5C), characterization of the NSUN1/2-ACS inhibitors interactions with the ACS machinery (FIG. 5D).
(§5) Black=negative control, blue=positive control, no drug=red.
(§6) The PL-RCA-CM/imaging technique utilized in the inventors previous work (Cheng, J. X. et al., Nature Communications 2018) was suitable to visualize and semi-quantify the NSUN1/2-mediated ACS in cells. […] To overcome this bottleneck, as described herein, the inventors developed NSUN1/2-targeting fluorescence quenching and release (FQR) plate assay (FIG. 6A) and PL-RCA flow cytometry (PL-RCA-FCM) technology (FIG. 6B) for screening of NSUN1/2-targeting drug libraries and quantitatively measuring NSUN1/2-mediated ACS with and without drugs in a lineage-specific and high-throughput manner. […]

NSUN1-c-MYC interaction = NSUN1-c-MYC interaction (Homo sapiens, UniProt P46087); experiment: PL-RCA-FCM, NSUN1-c-MYC interaction; type: cell-based
Text: as §4, §5, §6

[8] = target: NSUN1-RNA:m5C interaction (Homo sapiens, UniProt P46087); experiment: PL-RCA-FCM, NSUN1-RNA:m5C interaction; type: cell-based
Text: as §4
The PL-RCA-CM/imaging technique utilized in the inventors previous work (Cheng, J. X. et al., Nature Communications 2018) was suitable to visualize and semi-quantify the NSUN1/2-mediated ACS in cells. However, the previous technique had the disadvantage of having a low sensitivity and low throughput. To overcome this bottleneck, as described herein, the inventors developed NSUN1/2-targeting fluorescence quenching and release (FQR) plate assay (FIG. 6A) and PL-RCA flow cytometry (PL-RCA-FCM) technology (FIG. 6B) for screening of NSUN1/2-targeting drug libraries and quantitatively measuring NSUN1/2-mediated ACS with and without drugs in a lineage-specific and high-throughput manner. […]

[9] = target: T2, NSUN2-RNA polymerase II (RNAPII) interaction (Homo sapiens, UniProt Q08J23); experiment: PL-RCA-FCM, NSUN2-RNAPII interaction; type: cell-based
T2 construct: RNAPII CTD2-S2P
Text: as §5
The PL-RCA-CM/imaging technique utilized in the inventors previous work (Cheng, J. X. et al., Nature Communications 2018) was suitable to visualize and semi-quantify the NSUN1/2-mediated ACS in cells. However, the previous technique had the disadvantage of having a low sensitivity and low throughput. To overcome this bottleneck, as described herein, the inventors developed NSUN1/2-targeting fluorescence quenching and release (FQR) plate assay (FIG. 6A) and PL-RCA flow cytometry (PL-RCA-FCM) technology (FIG. 6B) for screening of NSUN1/2-targeting drug libraries and quantitatively measuring NSUN1/2-mediated ACS with and without drugs in a lineage-specific and high-throughput manner. The new PL-RCA-FCM detected very strong PL-RCA signals (>2 logs) of the NSUN2-mediated interactions with m5C, RNAPII CTD2-S2P and BRD4, particularly in the venetoclax-resistant leukemia cells (SC) (FIG. 6C), in comparison to the venetoclax-sensitive K1 cells (FIG. 6D).

[10] = test system: NSUN1 and NSUN2 binding modules; experiment: Synergy experiments; details: besides the NSUN1 A-460 binding module
Text: Without being limited by theory, this may potentially be why NSUN1-17 is effective in multiple different cancer types.

H82 cells = experiment: MTT growth inhibition in venetoclax-resistant lung cancer cell line H82; type: cell-based, human; details: human lung cancer cell line NCI-H82
Text: as §1, §2
FIGS. 12A-12J display bar graphs displaying the results of validation experiments for small molecule inhibitors of NSUN1/2-ACS interactions as identified herein. Drug validation of select SC, H82, and/or K562 inhibiting compounds in mouse acute myeloid leukemia cell Line (C1498), SC cells, H82 cells, and/or K562 cells. NSUN1-17 and/or venetoclax acted as controls. Inhibition of cell vitality was identified as dose-dependent for certain small molecules, not merely cytotoxic. In brief, stock with concentration 0.4×10^6 test (e.g., SC, H82, K562, or C1498, as labelled) cells/mL, and 10 μM/μL drug was serially diluted into drug-free cell stock to reach concentrations of 1 μM/μL and […] and split into 100 μL volumes in a 96-well plate. MTT assays performed after 24 hour incubation. Percentages calculated as a difference in mean absorbance of each drug triplicate and mean absorbance in drug-free cell triplicate. […]

C1498 cells = experiment: MTT growth inhibition in myeloid leukemia cell line C1498; type: cell-based, mouse; details: mouse AML cell line
Text: as §1, §3
The inventors then designed a protocol for functional screening of NSUN1/2-targeting supercomputing/AI-derived compound libraries as schematically presented in FIGS. 5A-5G. Briefly, the library compounds were obtained from various chemical companies/vendors and dissolved in DMSO, and then applied to 96-well plates that contained leukemia and/or other cancer cells that were resistant to venetoclax. Both the routine colorimetric assay (MTT assay) and the newly developed NSUN1/2-targeting fluorescence quenching and release (FQR) assay were performed to select bioactive compounds for further quantitative study to confirm that they targetNSUN1/2 and their associated ACS. As described below, the compound libraries screened through cancer cell proliferation and/or NSUN1/2 localization to the ACS successfully identified numerous promising compounds that can inhibit the leukemia cell growth and appear to target the NSUN1-mediated ACS (see Table 2). This success has proven the feasibility and efficacy of the described supercomputing/AI design and functional screening of the NSUN1/2-targeting drug libraries. In some aspects, screening is conducted using drug-resistant cell lines. In some aspects, screening is conducted using drug-sensitive cell lines. In some aspects, screening is conducted in leukemia cell lines. In some aspects, screening is conducted in other cancer cell lines besides leukemia (e.g., lung cancer cell lines). In some aspects, NSUN1/2-ACS inhibitors identified are verified in additional cell lines and/or animal models (see e.g., Tables 4-6).

Kasumi-1 (K1) cells = experiment: Venetoclax sensitivity of Kasumi-1 cells; type: cell-based
CCRF-CEM cells = experiment: Venetoclax sensitivity of CCRF-CEM cells; type: cell-based
K1VR cells = experiment: Venetoclax sensitivity of K1VR cells after NSUN1/NSUN2 knockdown; type: cell-based; details: knockdown of either NSUN1 or NSUN2
MDS/AML = details: cited from earlier work

NSUN1-c-MYC interaction, sequence (P46087 whole entry): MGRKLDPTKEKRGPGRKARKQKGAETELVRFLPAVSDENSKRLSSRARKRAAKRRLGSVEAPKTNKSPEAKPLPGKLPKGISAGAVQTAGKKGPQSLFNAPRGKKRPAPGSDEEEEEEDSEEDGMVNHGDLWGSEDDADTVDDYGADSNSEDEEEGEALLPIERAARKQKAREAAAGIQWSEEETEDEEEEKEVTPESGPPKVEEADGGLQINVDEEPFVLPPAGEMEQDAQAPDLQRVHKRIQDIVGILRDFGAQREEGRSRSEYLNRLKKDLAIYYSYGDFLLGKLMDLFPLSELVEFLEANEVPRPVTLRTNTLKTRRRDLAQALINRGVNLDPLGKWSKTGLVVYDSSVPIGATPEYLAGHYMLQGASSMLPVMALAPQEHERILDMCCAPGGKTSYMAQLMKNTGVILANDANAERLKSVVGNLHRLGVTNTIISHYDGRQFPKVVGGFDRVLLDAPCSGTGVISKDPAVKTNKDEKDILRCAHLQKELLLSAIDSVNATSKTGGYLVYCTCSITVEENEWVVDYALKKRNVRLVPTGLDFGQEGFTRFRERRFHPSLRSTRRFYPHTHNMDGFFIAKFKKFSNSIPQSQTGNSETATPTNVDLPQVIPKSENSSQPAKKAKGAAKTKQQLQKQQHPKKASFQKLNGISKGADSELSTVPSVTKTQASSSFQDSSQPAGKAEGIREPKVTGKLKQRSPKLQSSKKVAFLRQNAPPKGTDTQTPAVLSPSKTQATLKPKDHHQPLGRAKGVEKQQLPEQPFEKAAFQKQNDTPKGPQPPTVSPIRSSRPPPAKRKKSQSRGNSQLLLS
T1 sequence (P46087 whole entry): as above
NSUN1-RNA:m5C interaction, sequence (P46087 whole entry): as above
T2 sequence (Q08J23 whole entry): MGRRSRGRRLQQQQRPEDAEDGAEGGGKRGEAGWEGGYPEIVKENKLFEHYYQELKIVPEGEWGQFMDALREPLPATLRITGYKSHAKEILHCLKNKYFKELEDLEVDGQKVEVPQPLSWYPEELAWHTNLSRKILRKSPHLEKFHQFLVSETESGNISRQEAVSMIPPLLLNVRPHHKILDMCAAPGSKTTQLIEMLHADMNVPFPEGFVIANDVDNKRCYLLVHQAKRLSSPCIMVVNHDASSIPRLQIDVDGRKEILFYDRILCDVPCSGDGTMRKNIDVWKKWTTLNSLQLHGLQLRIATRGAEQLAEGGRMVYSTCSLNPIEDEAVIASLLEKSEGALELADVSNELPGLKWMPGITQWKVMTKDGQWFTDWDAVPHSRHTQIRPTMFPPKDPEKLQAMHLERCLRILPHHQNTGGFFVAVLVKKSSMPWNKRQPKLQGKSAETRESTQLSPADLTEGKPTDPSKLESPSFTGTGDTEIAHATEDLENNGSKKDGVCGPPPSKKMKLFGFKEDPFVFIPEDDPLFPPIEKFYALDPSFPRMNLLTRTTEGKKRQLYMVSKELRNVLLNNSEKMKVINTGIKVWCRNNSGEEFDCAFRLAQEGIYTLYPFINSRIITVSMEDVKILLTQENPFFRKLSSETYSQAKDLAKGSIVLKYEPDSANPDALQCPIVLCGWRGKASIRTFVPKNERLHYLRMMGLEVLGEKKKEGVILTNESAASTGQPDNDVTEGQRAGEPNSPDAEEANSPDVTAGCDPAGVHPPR

SMILES: Nc1ncn([C@@H]2O[C@H](CO)[C@@H](O)[C@H]2O)c(=O)n1 [5-AZA, 5-azacytidine]
- Sensitivity of eRNAPII (CTD-S2P)-NSUN1 interaction [1]: resistant
- Sensitivity of eRNAPII (CTD-S2P)-NSUN3 interaction [2]: highly sensitive
- Sensitivity of eRNAPII (CTD-S2P)-DNMT2 interaction [3]: highly sensitive
- Response of 5-AZA-resistant SCAR cells after NSUN1 knockdown (SCAR cells): re-sensitized
- Sensitivity of eRNAPII (CTD-S2P)-CTD-S5P interaction [4]: resistant

SMILES: Cc1sc2c(c1C)C(c1ccc(Cl)cc1)=N[C@@H](CC(=O)OC(C)(C)C)c1nnc(C)n1-2 [JQ1]
- Sensitivity of BRD4-eRNAPII (CTD-S2P) interaction [5]: insensitive
- Sensitivity of BRD4-NSUN1 interaction (BRD4-NSUN1 interaction): insensitive

SMILES: Cc1[nH]nc2ccc(-c3cncc(OC[C@@H](N)Cc4c[nH]c5ccccc45)c3)cc12 [NSUN1-17]
- Inhibition of growth of venetoclax-resistant leukemia (SC) cells (SC cells): inhibition of the growth of venetoclax-resistant SC cells; also recorded: inhibit drug (venetoclax)-resistant leukemia cells
- Efficacy of tumor cell growth inhibition [6]: high-efficacy of tumor cell growth inhibition
- Effect on NSUN1 interaction with eRNAPII/RNAPII [7]: inhibited the interaction; also recorded: can only disrupt the NSUN1-mediated interaction; also recorded: effectively disrupted
- Effect on NSUN1 interaction with c-MYC (NSUN1-c-MYC interaction): inhibited the interaction; also recorded: can only disrupt the NSUN1-mediated interaction; also recorded: effectively disrupted
- Effect on NSUN1 interaction with RNA:m5C [8]: but not the interaction between NSUN1 and RNA m5C; also recorded: little effects
- Effect on NSUN2-mediated interaction with RNA polymerase II [9]: not the NSUN-2 mediated interaction
- Binding modules targeted, from synergy experiments [10]: likely to target multiple binding modules in both NSUN1 and NSUN2

SMILES: CC1(C)CCC(CN2CCN(c3ccc(C(=O)NS(=O)(=O)c4ccc(NCC5CCOCC5)c([N+](=O)[O-])c4)c(Oc4cnc5[nH]ccc5c4)c3)CC2)=C(c2ccc(Cl)cc2)C1 [venetoclax, Venetoclax]
- Sensitivity/resistance of SC cells (SC cells; monocytic leukemia line SC): highly resistant
- Sensitivity/resistance of NCI-H82 cells (H82 cells): resistant
- Sensitivity/resistance of C1498 cells (C1498 cells): moderate to high resistance
- Sensitivity/resistance of Kasumi-1 cells (Kasumi-1 (K1) cells): sensitive
- Sensitivity/resistance of CCRF-CEM cells (CCRF-CEM cells): sensitive
- Sensitivity of K1VR cells after NSUN1 or NSUN2 siRNA knockdown (K1VR cells): re-sensitize
- AML patients developing venetoclax acquired resistance (MDS/AML; AML patients, venetoclax-based therapy, acquired resistance): > 60%
- MDS/AML with primary venetoclax resistance (MDS/AML; MDS/AML, primary resistance): 30-40%
